The text below walks through data of paper PMC4212247 (Neoplasia (New York, N.Y.), 2014).

The test has as its target p70 S6 kinase (S6K1) (Homo sapiens, UniProt P23443). The test can be described thus: in vitro kinase assay with recombinant S6K1, peptide substrate and […] ATP. Format: biochemical.

Sequence of p70 S6 kinase (S6K1) (P23443 24-525): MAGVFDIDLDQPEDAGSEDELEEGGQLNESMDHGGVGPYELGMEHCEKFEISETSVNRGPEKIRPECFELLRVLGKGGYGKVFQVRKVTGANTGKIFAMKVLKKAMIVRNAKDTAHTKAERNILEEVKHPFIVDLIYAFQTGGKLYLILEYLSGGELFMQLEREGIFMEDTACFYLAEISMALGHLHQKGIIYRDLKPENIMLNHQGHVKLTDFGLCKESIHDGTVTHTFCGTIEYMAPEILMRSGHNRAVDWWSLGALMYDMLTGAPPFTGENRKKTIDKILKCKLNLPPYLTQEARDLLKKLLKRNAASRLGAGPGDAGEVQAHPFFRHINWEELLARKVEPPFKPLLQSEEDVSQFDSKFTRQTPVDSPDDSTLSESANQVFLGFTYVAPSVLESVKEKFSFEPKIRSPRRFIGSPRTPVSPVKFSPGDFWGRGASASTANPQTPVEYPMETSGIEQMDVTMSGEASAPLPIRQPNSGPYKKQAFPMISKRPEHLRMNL

Turning to `C/C(O)=C(\C#N)C(=O)Nc1ccc(C(F)(F)F)cc1` [A77 1726], the IC50 was around 80 µM. Consider `Cc1oncc1C(=O)Nc1ccc(C(F)(F)F)cc1` [leflunomide], for which the half-inhibitory concentration (IC50) was around 55 µM.
